The source of these data is article PMC3969104 (Journal of Medicinal Chemistry, 2014).

The target in series [1] is T1, CK-1δ (Homo sapiens, UniProt P48730). Format: biochemical.
Series [2] has as its system elav-Gal4GS > UAS-hTDP-43 transgenic flies. The series is described as follows: Lifespan of transgenic hTDP-43 Drosophila. It is filed as in vivo. The settings on record: 100 nM compound, log rank test versus DMSO.
In series [3] the test system is TDP-43 phosphorylation (pS409/410) in HEK293 cells. The series is described as follows: Ethacrynic acid induced TDP-43 phosphorylation in HEK293 cells.
For the next series, the system named is 290 kinases panel. The settings on record: cited from earlier work.
Series [4] concerns the target T1, CK-1δ. As to the kind of experiment: Kinetic studies on CK-1δ. Format: biochemical. The following applies: ATP 1 to 50 μM, casein 12.5 μM, double reciprocal plot.
The next series deals with CDC like kinase 1 (CLK1) (Homo sapiens, UniProt P49759). The series is described as follows: KinomeScan screening, CLK1. Format: binding. The settings on record: 10 μM.
CDC like kinase 1 (CLK1), sequence (P49759 whole entry): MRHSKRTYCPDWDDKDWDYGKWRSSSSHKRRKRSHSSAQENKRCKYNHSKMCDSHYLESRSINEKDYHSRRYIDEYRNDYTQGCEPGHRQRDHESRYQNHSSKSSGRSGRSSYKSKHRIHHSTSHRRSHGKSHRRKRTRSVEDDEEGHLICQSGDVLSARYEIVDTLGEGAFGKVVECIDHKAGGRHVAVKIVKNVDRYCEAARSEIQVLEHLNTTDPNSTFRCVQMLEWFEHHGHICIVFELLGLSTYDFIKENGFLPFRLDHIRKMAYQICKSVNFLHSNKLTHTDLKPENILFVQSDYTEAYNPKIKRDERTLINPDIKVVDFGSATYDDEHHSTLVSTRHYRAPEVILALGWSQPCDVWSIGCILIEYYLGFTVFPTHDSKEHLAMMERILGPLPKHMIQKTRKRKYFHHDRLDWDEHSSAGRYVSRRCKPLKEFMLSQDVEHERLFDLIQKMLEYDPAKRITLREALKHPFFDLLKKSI
In another series the target is CDC like kinase 4 (CLK4) (Homo sapiens, UniProt Q9HAZ1). The series is described as follows: KinomeScan screening, CLK4. Format: binding. The following applies: 10 μM.
CDC like kinase 4 (CLK4), sequence (Q9HAZ1 whole entry): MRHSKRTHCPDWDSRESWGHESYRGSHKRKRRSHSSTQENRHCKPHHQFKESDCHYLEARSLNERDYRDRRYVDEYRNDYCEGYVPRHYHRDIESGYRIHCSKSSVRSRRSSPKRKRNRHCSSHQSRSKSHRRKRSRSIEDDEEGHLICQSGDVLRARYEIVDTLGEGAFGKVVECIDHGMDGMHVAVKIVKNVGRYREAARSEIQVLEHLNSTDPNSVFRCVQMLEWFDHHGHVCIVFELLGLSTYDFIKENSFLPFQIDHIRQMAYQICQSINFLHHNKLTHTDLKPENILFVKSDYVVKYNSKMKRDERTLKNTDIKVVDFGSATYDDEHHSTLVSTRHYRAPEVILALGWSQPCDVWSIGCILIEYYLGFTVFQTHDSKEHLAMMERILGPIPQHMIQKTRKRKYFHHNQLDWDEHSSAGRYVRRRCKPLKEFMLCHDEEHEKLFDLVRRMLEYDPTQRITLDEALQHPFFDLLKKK
The next series deals with CK-1α1 (Homo sapiens, UniProt P48729). As to the kind of experiment: KinomeScan screening, CK-1α1. Format: binding. The following applies: 10 μM.
CK-1α1, sequence (P48729 whole entry): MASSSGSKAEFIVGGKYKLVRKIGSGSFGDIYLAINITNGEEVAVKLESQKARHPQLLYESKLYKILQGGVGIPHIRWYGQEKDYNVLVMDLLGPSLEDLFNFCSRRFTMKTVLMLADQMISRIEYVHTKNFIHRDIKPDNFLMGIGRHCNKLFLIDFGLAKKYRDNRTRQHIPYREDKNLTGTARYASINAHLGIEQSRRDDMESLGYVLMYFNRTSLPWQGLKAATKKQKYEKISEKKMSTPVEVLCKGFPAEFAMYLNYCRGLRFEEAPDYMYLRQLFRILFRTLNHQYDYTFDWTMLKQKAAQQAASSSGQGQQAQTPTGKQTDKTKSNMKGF
Series [5] addresses T1, CK-1δ. As to the kind of experiment: KinomeScan screening, CK-1δ. The following applies: 10 μM. It is filed as binding.
The target in a further series is CK-1ε (Homo sapiens, UniProt P49674). As to the kind of experiment: KinomeScan screening, CK-1ε. The settings on record: 10 μM. It is filed as binding.
CK-1ε, sequence (P49674 whole entry): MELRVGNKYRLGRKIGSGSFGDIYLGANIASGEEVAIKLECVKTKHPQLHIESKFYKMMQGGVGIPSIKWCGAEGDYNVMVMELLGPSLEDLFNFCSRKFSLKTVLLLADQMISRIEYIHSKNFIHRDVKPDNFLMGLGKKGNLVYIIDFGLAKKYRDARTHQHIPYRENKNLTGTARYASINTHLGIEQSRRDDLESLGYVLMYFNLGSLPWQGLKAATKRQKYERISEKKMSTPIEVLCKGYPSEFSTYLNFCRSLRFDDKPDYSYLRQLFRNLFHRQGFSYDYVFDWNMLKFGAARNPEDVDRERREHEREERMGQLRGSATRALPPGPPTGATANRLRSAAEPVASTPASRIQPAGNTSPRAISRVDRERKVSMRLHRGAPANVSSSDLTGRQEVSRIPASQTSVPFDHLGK
A further series addresses CK-1γ2 (Homo sapiens, UniProt P78368). The series is described as follows: KinomeScan screening, CK-1γ2. It is filed as binding. The settings on record: 10 μM.
A further series has as its target DYRK1A (Homo sapiens, UniProt Q13627). As to the kind of experiment: KinomeScan screening, DYRK1A. It is filed as binding. The settings on record: 10 μM.
In a further series the target is DYRK1B (Homo sapiens, UniProt Q9Y463). The series is described as follows: KinomeScan screening, DYRK1B. Format: binding. The following applies: 10 μM.
DYRK1B, sequence (Q9Y463 whole entry): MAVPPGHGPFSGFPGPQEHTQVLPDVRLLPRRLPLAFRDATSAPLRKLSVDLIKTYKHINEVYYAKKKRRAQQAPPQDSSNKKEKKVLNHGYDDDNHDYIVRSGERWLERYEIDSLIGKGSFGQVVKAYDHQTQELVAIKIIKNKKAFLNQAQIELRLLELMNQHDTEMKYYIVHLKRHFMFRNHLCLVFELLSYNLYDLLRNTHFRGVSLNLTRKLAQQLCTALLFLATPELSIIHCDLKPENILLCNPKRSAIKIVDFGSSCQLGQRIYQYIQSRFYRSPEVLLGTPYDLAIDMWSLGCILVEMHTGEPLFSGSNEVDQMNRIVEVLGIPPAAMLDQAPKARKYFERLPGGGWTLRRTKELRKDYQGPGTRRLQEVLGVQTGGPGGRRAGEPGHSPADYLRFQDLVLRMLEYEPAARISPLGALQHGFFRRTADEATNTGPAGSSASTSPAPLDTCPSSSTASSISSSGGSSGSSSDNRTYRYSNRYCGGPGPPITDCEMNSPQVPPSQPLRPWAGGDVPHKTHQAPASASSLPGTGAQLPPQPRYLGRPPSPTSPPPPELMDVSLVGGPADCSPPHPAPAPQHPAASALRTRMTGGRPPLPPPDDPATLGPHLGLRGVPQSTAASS
The target in series [6] is fms-related tyrosine kinase 1 (FLT1) (Homo sapiens, UniProt P17948). As to the kind of experiment: KinomeScan screening, FLT1. Format: binding. The following applies: 10 μM.
Series [7] deals with T2, myosin light chain kinase 3 (MLCK) (Homo sapiens, UniProt Q32MK0).
T2 sequence (Q32MK0 1-819): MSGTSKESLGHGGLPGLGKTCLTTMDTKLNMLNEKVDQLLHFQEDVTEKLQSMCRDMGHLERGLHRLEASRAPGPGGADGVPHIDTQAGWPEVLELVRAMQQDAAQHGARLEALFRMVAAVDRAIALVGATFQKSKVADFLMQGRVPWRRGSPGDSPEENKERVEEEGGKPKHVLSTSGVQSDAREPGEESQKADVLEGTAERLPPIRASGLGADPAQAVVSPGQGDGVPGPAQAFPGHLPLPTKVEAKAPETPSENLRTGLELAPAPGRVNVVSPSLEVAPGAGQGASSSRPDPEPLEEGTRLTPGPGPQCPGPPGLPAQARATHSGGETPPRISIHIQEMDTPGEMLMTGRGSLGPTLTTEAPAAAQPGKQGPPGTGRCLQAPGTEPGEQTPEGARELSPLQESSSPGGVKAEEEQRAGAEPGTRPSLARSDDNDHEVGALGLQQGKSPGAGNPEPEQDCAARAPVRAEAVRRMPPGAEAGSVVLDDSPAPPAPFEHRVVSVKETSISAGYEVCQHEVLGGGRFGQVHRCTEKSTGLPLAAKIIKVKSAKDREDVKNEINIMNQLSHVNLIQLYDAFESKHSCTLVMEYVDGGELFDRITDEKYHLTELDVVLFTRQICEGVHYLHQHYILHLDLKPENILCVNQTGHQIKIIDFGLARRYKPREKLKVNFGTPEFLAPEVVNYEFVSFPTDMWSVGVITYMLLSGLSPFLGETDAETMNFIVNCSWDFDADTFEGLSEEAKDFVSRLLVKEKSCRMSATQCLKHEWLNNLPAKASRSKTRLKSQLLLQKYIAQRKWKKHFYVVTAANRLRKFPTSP
The series is described as follows: KinomeScan screening, MLCK. Format: binding. The following applies: 10 μM.

In series [8] the target is platelet-derived growth factor receptor (PDGFRB) (Homo sapiens, UniProt P09619). The series is described as follows: KinomeScan screening, PDGFRB. Format: binding. The following applies: 10 μM.
platelet-derived growth factor receptor (PDGFRB), sequence (P09619 33-1106): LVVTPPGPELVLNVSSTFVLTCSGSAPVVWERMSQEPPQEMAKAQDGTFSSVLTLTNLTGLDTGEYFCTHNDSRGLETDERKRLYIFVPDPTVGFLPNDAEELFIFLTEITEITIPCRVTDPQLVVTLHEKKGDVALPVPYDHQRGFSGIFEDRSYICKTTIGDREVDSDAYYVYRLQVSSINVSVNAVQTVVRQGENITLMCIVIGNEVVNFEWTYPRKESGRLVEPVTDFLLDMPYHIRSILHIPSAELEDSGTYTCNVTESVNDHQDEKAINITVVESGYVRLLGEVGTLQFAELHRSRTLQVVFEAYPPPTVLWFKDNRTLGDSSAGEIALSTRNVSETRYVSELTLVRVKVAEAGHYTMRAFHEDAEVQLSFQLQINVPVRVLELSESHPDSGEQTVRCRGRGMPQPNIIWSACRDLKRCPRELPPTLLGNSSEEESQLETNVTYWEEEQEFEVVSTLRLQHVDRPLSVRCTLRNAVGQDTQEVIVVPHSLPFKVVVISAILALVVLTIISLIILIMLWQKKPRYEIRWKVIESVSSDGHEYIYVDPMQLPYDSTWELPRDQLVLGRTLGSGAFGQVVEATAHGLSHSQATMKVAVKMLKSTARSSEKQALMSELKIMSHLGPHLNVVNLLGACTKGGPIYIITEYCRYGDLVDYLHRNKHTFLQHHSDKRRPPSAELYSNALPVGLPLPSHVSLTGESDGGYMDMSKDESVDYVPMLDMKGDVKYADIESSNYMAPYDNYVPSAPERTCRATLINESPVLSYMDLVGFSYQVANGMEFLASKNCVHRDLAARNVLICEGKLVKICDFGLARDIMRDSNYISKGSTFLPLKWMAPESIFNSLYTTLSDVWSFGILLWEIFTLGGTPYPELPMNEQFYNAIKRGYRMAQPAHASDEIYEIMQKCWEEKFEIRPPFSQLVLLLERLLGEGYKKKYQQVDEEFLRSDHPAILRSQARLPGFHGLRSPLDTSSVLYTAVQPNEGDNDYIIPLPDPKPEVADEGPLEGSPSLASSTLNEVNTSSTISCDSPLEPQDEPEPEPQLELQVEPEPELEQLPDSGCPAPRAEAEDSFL
A short description of series [9]: PAMPA-BBB permeability assay. The settings on record: PAMPA vehicle PBS:EtOH (70:30). Background: The PAMPA barrier holds no transporters, so it reflects passive diffusion.
In series [10] the test system is panel of 456 protein kinases. As to the kind of experiment: KinomeScan selectivity screening on a kinase panel. Format: binding, human. The following applies: 10 μM, 456 kinases; number of kinases bound divided by distinct kinases tested.
In series [11] the test system is amyotrophic lateral sclerosis (ALS). The following applies: ALS patients; cited from earlier work.
The mark [12] stands for this setting: HEK293, 1.5 h pretreatment, 150 μM ethacrynic acid.

T1 sequence (P48730 whole entry, the tested form may be a part): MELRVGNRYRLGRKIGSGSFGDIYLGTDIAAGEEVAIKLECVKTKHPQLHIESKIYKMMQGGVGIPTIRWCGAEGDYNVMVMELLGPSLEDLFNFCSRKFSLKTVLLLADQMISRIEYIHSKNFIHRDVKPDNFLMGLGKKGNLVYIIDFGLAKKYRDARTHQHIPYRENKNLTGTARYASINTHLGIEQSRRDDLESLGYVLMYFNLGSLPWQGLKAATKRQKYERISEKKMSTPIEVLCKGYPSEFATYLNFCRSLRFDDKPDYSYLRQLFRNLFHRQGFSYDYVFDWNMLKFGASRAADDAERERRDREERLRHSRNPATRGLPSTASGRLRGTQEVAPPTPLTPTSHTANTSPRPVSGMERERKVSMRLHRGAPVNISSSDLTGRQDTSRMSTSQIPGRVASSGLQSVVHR
CK-1γ2, sequence (P78368 whole entry): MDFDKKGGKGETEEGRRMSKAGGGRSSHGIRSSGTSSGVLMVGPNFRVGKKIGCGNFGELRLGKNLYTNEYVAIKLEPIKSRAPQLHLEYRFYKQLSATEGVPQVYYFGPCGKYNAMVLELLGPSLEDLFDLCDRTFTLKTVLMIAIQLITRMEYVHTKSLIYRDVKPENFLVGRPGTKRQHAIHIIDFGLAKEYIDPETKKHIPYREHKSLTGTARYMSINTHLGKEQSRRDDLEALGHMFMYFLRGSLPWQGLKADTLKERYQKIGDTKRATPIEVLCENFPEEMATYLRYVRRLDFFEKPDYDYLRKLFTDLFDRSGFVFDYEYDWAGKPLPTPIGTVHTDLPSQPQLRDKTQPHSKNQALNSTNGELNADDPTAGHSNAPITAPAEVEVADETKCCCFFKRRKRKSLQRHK

In the case of `COc1ccc2nc(NC(=O)Cc3ccccc3OC)sc2c1` [Compound 35, N-(6-Methoxybenzothiazol-2-yl)-2-(2-methoxyphenyl)acetamide], the “fold less potent than 20 and 24 as CK-1δ inhibitor” value on CK-1δ [1] is 100 fold. Also, in series [2], the “effect on fly lifespan” value was “significantly increased”.
With `O=C(Cc1cccc(C(F)(F)F)c1)Nc1nc2ccc(C(F)(F)F)cc2s1` [Compound 41, N-(6-(Trifluoromethyl)benzothiazol-2-yl)-2-(3-(trifluoromethyl)phenyl)acetamide], in [3] (HEK293, by 10 μM inhibitor), the “fold reduction in TDP-43 phosphorylation” value is “greater than 2 fold”.
Consider `O=C(Cc1ccccc1)Nc1nc2ccc(C(F)(F)F)cc2s1` [Compound 46, N-(6-(Trifluoromethyl)benzothiazol-2-yl)-2-phenylacetamide], for which the “concentration with nearly complete absence of TDP-43 phosphorylation” value in series [3] (HEK293, 1.5 h pretreatment, 150 μM ethacrynic acid, range 1.25-160 μM) is at least 2.5 µM.
With `CCN(CC)CCNC(=O)c1c(C)[nH]c(/C=C2\C(=O)Nc3ccc(F)cc32)c1C` [Sunitinib], the S score in the series on 290 kinases panel is given as 0.57.
For `O=C(Cc1ccccc1Cl)Nc1nc2ccc(C(F)(F)F)cc2s1` [Compound 24, 2-(2-Chlorophenyl)-N-(6-(trifluoromethyl)benzothiazol-2-yl)acetamide], the “mechanism of CK-1δ inhibition with respect to ATP” value (from here on “mechanism of CK-1δ inhibition”) at CK-1δ [4] was “ATP competitive inhibition”. Further, the “inhibition of CLK1” value against CDC like kinase 1 (CLK1) is “inhibited”. Moreover, the “inhibition of CLK4” value against CDC like kinase 4 (CLK4) was “inhibited”. For the same compound, the “inhibition of CK-1α1” value against CK-1α1 is “inhibited”. On CK-1δ [5], the “inhibition of CK-1δ” value is “inhibited”. For the same compound, at CK-1ε, the “inhibition of CK-1ε” value was “inhibited”. The “inhibition of CK-1γ2” value against CK-1γ2 is reported as “inhibited”. At DYRK1A, the “inhibition of DYRK1A” value is “inhibited”. The “inhibition of DYRK1B” value against DYRK1B was “inhibited”. Further, the “inhibition of FLT1” value in series [6] was “inhibited”. For the same compound, the “inhibition of MLCK” value in [7] is “inhibited”. Also, the “inhibition of PDGFRB” value in [8] is “inhibited”. Further, the “effect on fly lifespan” value in series [2] was “significantly increased”. Also, the “solubility in the assay vehicle” value in series [9] was “low solubility”. For the same compound, the “concentration with moderate inhibition of TDP-43 phosphorylation” value in series [3] (setting [12]) was at least 1.25 µM.
For the compound `O=C(Cc1ccc(Cl)cc1)Oc1nc2ccccc2s1` [Compound 9, (Benzothiazol-2-yl)-2-(4-chlorophenyl)acetate], in series [2], the “effect on fly lifespan” value is given as “did not significantly modify fly longevity”.
As for `O=C(Cc1cccc(Cl)c1)Nc1nc2ccc(C(F)(F)F)cc2s1` [Compound 20, 2-(3-Chlorophenyl)-N-(6-(trifluoromethyl)benzothiazol-2-yl)acetamide], the “mechanism of CK-1δ inhibition” value at CK-1δ [4] is reported as “ATP competitive inhibition”. Moreover, the “selectivity score (S score)” value in [10] was 0.04. In addition, the “inhibition of CLK1” value against CDC like kinase 1 (CLK1) is “inhibited”. In addition, on CDC like kinase 4 (CLK4), the “inhibition of CLK4” value is on record as “inhibited”. In addition, the “inhibition of CK-1α1” value against CK-1α1 was “inhibited”. At CK-1δ [5], the “inhibition of CK-1δ” value is “inhibited”. For the same compound, on CK-1ε, the “inhibition of CK-1ε” value is recorded as “inhibited”. Besides, the “inhibition of CK-1γ2” value against CK-1γ2 was “inhibited”. The “inhibition of DYRK1A” value against DYRK1A is “inhibited”. Moreover, the “inhibition of DYRK1B” value at DYRK1B is recorded as “inhibited”. Moreover, the “inhibition of FLT1” value in series [6] is listed as “inhibited”. Moreover, the “inhibition of MLCK” value in [7] is “inhibited”. Further, the “inhibition of PDGFRB” value in series [8] is “inhibited”. Besides, in series [2], the “effect on fly lifespan” value is listed as “significantly increased”. Also, in series [3] (setting [12]), the “concentration with inhibition of TDP-43 phosphorylation” value is on record as “above 80 μM”.
Consider `COc1ccccc1CC(=O)Nc1nc2ccc(C(F)(F)F)cc2s1` [Compound 34, N-(6-(Trifluoromethyl)benzothiazol-2-yl)-2-(2-methoxyphenyl)acetamide], for which, at CK-1δ [4], the “mechanism of CK-1δ inhibition” value is listed as “ATP competitive inhibition”. The “concentration with inhibition of TDP-43 phosphorylation” value in [3] (setting [12]) is “above 80 μM”.
With `CS(=O)(=O)CCNCc1ccc(-c2ccc3ncnc(Nc4ccc(OCc5cccc(F)c5)c(Cl)c4)c3c2)o1` [Lapatinib], in the series with 290 kinases panel, the S score was 0.010.
As for `COc1cc(OC)c(C=C2C(=O)Nc3ccccc32)c(OC)c1` [IC261, reference compound], the “mechanism of CK-1δ inhibition” value on CK-1δ [4] was “ATP competitive inhibitor”.
`Nc1nc2ccc(OC(F)(F)F)cc2s1` [Riluzole]: in series [11], the extension of survival is on record as 2–3 months.
Regarding `COc1cccc(CC(=O)Nc2nc3ccc(C(F)(F)F)cc3s2)c1` [Compound 38, N-(6-(Trifluoromethyl)benzothiazol-2-yl)-2-(3-methoxyphenyl)acetamide], the “concentration giving significant reduction of TDP-43 phosphorylation” value in series [3] (setting [12]) is 5 µM.
